For two molecules, EC50 results are on record in publication PMC5042178, “Amino acid residues of bitter taste receptor TAS2R16 that determine sensitivity in primates to β-glycosides” (Biophysics and Physicobiology, 2016).

Positions count from the first letter of the chain named. Where two headings read alike, the source gives them in different places.

Common to all, as to test: calcium imaging (Calcium-4), HEK […]
Holding throughout (type): cell-based

Assay [1] deals with T1, human TAS2R16 (Homo sapiens, UniProt Q9NYV7).
T1 construct: full-length; N-terminal 45 residues of rat SSTR3 and C-terminal 8 residues of bovine rhodopsin as tags; pEAK10, HEK 293T with G16gust44
T1 sequence (Q9NYV7 1-291): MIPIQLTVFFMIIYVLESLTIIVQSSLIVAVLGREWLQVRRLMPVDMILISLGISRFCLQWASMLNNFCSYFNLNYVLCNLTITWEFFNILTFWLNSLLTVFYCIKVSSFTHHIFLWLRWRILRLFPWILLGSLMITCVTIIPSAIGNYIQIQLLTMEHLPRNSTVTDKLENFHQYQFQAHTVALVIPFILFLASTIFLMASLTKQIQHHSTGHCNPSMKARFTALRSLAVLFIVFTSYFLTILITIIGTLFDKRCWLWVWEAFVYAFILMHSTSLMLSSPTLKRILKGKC

Assay [2] addresses T2, human TAS2R16 (Homo sapiens, UniProt Q9NYV7, E86T/I247M/V260F).
T2 construct: full-length; N-terminal 45 residues of rat SSTR3 and C-terminal 8 residues of bovine rhodopsin as tags; pEAK10, HEK 293T with G16gust44
T2 sequence (Q9NYV7 1-291 E86T/I247M/V260F): T1 sequence (Q9NYV7 1-291) with E86T, I247M, V260F

Assay [3] addresses T3, human TAS2R16 (Homo sapiens, UniProt Q9NYV7, S133C).
T3 construct: full-length; N-terminal 45 residues of rat SSTR3 and C-terminal 8 residues of bovine rhodopsin as tags; pEAK10, HEK 293T with G16gust44
T3 sequence (Q9NYV7 1-291 S133C): T1 sequence (Q9NYV7 1-291) with S133C

The target in assay [4] is T4, human TAS2R16 (Homo sapiens, UniProt Q9NYV7, I247M).
T4 construct: full-length; N-terminal 45 residues of rat SSTR3 and C-terminal 8 residues of bovine rhodopsin as tags; pEAK10, HEK 293T with G16gust44
T4 sequence (Q9NYV7 1-291 I247M): T1 sequence (Q9NYV7 1-291) with I247M

The target in assay [5] is T5, human TAS2R16 (Homo sapiens, UniProt Q9NYV7, V260F).
T5 construct: full-length; N-terminal 45 residues of rat SSTR3 and C-terminal 8 residues of bovine rhodopsin as tags; pEAK10, HEK 293T with G16gust44
T5 sequence (Q9NYV7 1-291 V260F): T1 sequence (Q9NYV7 1-291) with V260F

Assay [6] deals with T6, human TAS2R16 (Homo sapiens, UniProt Q9NYV7, E86T/I247M).
T6 construct: full-length; N-terminal 45 residues of rat SSTR3 and C-terminal 8 residues of bovine rhodopsin as tags; pEAK10, HEK 293T with G16gust44
T6 sequence (Q9NYV7 1-291 E86T/I247M): T1 sequence (Q9NYV7 1-291) with E86T, I247M

Assay [7] addresses T7, human TAS2R16 (Homo sapiens, UniProt Q9NYV7, L125W).
T7 construct: full-length; N-terminal 45 residues of rat SSTR3 and C-terminal 8 residues of bovine rhodopsin as tags; pEAK10, HEK 293T with G16gust44
T7 sequence (Q9NYV7 1-291 L125W): T1 sequence (Q9NYV7 1-291) with L125W

The target in assay [8] is T8, human TAS2R16 (Homo sapiens, UniProt Q9NYV7, E86T/V260F).
T8 construct: full-length; N-terminal 45 residues of rat SSTR3 and C-terminal 8 residues of bovine rhodopsin as tags; pEAK10, HEK 293T with G16gust44
T8 sequence (Q9NYV7 1-291 E86T/V260F): T1 sequence (Q9NYV7 1-291) with E86T, V260F

Assay [9] deals with T1, human TAS2R16. The note with it: G16gust44 co-expressed; agonist.

As a reminder, the EC50 is the concentration giving half of the maximal effect. `N#C[C@H](O[C@@H]1O[C@H](CO[C@@H]2O[C@H](CO)[C@@H](O)[C@H](O)[C@H]2O)[C@@H](O)[C@H](O)[C@H]1O)c1ccccc1` [amygdalin]: the concentration giving a half-maximal response (EC50) at human TAS2R16 [1] was 760 ± 400 µM.
For the molecule `OCc1ccccc1O[C@@H]1O[C@H](CO)[C@@H](O)[C@H](O)[C@H]1O` [salicin], the EC50 on human TAS2R16 [2] is 5090 ± 1100 µM; on human TAS2R16 [3], 74 ± 6 µM; at human TAS2R16 [4], 1400 ± 90 µM; at human TAS2R16 [5], 1280 ± 180 µM; on human TAS2R16 [6], 3540 ± 550 µM; at human TAS2R16 [7], 200 ± 50 µM. Also, the EC50 is 3650 ± 1000 µM on human TAS2R16 [8]; “plotted with wild-type human and macaque TAS2R16s” at human TAS2R16 [9].
